Experimental findings from patent publication US20150218534A1, “MODIFIED DNA POLYMERASE” (TOYOBO CO., LTD., priority 2012, published 2015) are described below.

In the assay the test system is 1.3 kbp, 2.8 kbp, and 3.6 kbp of human β-globin. Put plainly: Amplification of long-chain DNA in PCR using dUTP. The class given is biochemical. Further details: key to Results of PCR in the presence of dUTP 1.3 kbp / Results of PCR in the presence of dUTP 2.8 kbp / Results of PCR in the presence of dUTP 3.6 kbp: A: Amplified; B: Amplified (faint band); C: Not amplified. The settings on record: dTTP replaced by dUTP, 35 cycles. A digest of the protocol:
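Enzymes (1 U, premixed with KOD antibody) amplified 1.3, 2.8 and 3.6 kbp β-globin from 10 ng human genomic DNA with 2 mM dNTPs having dUTP in place of dTTP, 1.5 mM MgSO4, 35 cycles (98° C. 10 s, 65° C. 30 s, 68° C. ~1 min/kbp). Taq control: 2.5 U, 94° C. denaturation. Yield judged by ethidium-stained agarose gel.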

Turning to “KOD H147E/Y7A/V93K: KOD H147E (exo(+)) mutant with Y7A and V93K”, the “Results of PCR in the presence of dUTP 1.3 kbp” value (“Results of PCR … of dUTP 1.3 kbp” below) is listed as “A”, the “Results of PCR in the presence of dUTP 2.8 kbp” value (shortened to “Results of PCR … of dUTP 2.8 kbp”) is “A” and the “Results of PCR in the presence of dUTP 3.6 kbp” value (“Results of PCR … of dUTP 3.6 kbp” for short) is “B”.

For “KOD H147E/Y7A/P36H: KOD H147E (exo(+)) mutant with Y7A and P36H”, the “Results of PCR … of dUTP 1.3 kbp” value is reported as “A”, the “Results of PCR … of dUTP 2.8 kbp” value is given as “A” and the “Results of PCR … of dUTP 3.6 kbp” value was “B”.

“KOD N210D/P36R: KOD N210D (exo(−)) mutant with P36R”: the “Results of PCR … of dUTP 1.3 kbp” value is given as “A”, the “Results of PCR … of dUTP 2.8 kbp” value is listed as “A” and the “Results of PCR … of dUTP 3.6 kbp” value is “A”.

With “KOD H147E/Y7A/P36R: KOD H147E (exo(+)) mutant with Y7A and P36R”, the “Results of PCR … of dUTP 1.3 kbp” value is reported as “A”, the “Results of PCR … of dUTP 2.8 kbp” value is recorded as “A” and the “Results of PCR … of dUTP 3.6 kbp” value was “B”.

In the case of “KOD H147E/V93R: KOD H147E (exo(+)) mutant with V93R”, the “Results of PCR … of dUTP 1.3 kbp” value is “B”, the “Results of PCR … of dUTP 2.8 kbp” value is “B” and the “Results of PCR … of dUTP 3.6 kbp” value is recorded as “B”.

“KOD H147E/Y7A/P115Δ: KOD H147E (exo(+)) mutant with Y7A and lacking P115”: the “Results of PCR … of dUTP 1.3 kbp” value is reported as “C”, the “Results of PCR … of dUTP 2.8 kbp” value is “C” and the “Results of PCR … of dUTP 3.6 kbp” value is “C”.

Turning to “KOD D141A/E143A/P36H: KOD D141A/E143A (exo(−)) mutant with P36H”, the “Results of PCR … of dUTP 1.3 kbp” value is given as “A”, the “Results of PCR … of dUTP 2.8 kbp” value was “A” and the “Results of PCR … of dUTP 3.6 kbp” value was “A”.

Turning to “KOD D141A/E143A/P36R: KOD D141A/E143A (exo(−)) mutant with P36R”, the “Results of PCR … of dUTP 1.3 kbp” value was “A”, the “Results of PCR … of dUTP 2.8 kbp” value is given as “A” and the “Results of PCR … of dUTP 3.6 kbp” value was “A”.

As to “KOD H147E/Y7A: KOD H147E (exo(+)) mutant with Y7A”, the “Results of PCR … of dUTP 1.3 kbp” value is “C”, the “Results of PCR … of dUTP 2.8 kbp” value is recorded as “C” and the “Results of PCR … of dUTP 3.6 kbp” value is reported as “C”.

Turning to “KOD N210D/Y7A: KOD N210D (exo(−)) mutant with Y7A”, the “Results of PCR … of dUTP 1.3 kbp” value was “C”, the “Results of PCR … of dUTP 2.8 kbp” value is recorded as “C” and the “Results of PCR … of dUTP 3.6 kbp” value is “C”.

As to “KOD I142R/Y7A/P36H: KOD I142R (exo(−)) mutant with Y7A and P36H”, the “Results of PCR … of dUTP 1.3 kbp” value is “A”, the “Results of PCR … of dUTP 2.8 kbp” value is recorded as “A” and the “Results of PCR … of dUTP 3.6 kbp” value is listed as “C”.

Take “KOD N210D/Y7A/P36R: KOD N210D (exo(−)) mutant with Y7A and P36R”: the “Results of PCR … of dUTP 1.3 kbp” value is “A”, the “Results of PCR … of dUTP 2.8 kbp” value is “A” and the “Results of PCR … of dUTP 3.6 kbp” value was “A”.

As for “KOD N210D/P115Δ: KOD N210D (exo(−)) mutant lacking P115”, the “Results of PCR … of dUTP 1.3 kbp” value was “C”, the “Results of PCR … of dUTP 2.8 kbp” value is “C” and the “Results of PCR … of dUTP 3.6 kbp” value is recorded as “C”.

“KOD I142R/P36H: KOD I142R (exo(−)) mutant with P36H”: the “Results of PCR … of dUTP 1.3 kbp” value was “A”, the “Results of PCR … of dUTP 2.8 kbp” value is on record as “A” and the “Results of PCR … of dUTP 3.6 kbp” value is on record as “A”.

As to “KOD H147E/P36R/V93K: KOD H147E (exo(+)) mutant with P36R and V93K”, the “Results of PCR … of dUTP 1.3 kbp” value was “C”, the “Results of PCR … of dUTP 2.8 kbp” value is on record as “C” and the “Results of PCR … of dUTP 3.6 kbp” value is listed as “C”.

On to “KOD H147E/V93Q: KOD H147E (exo(+)) mutant with V93Q”, for which the “Results of PCR … of dUTP 1.3 kbp” value was “C”, the “Results of PCR … of dUTP 2.8 kbp” value is “C” and the “Results of PCR … of dUTP 3.6 kbp” value was “C”.

Take “KOD N210D/V93R: KOD N210D (exo(−)) mutant with V93R”: the “Results of PCR … of dUTP 1.3 kbp” value is reported as “A”, the “Results of PCR … of dUTP 2.8 kbp” value is given as “B” and the “Results of PCR … of dUTP 3.6 kbp” value was “B”.

“KOD H147E/P36H/V93K: KOD H147E (exo(+)) mutant with P36H and V93K”: the “Results of PCR … of dUTP 1.3 kbp” value is “A”, the “Results of PCR … of dUTP 2.8 kbp” value was “A” and the “Results of PCR … of dUTP 3.6 kbp” value is “C”.

Consider “KOD N210D/V93Q: KOD N210D (exo(−)) mutant with V93Q”, for which the “Results of PCR … of dUTP 1.3 kbp” value is recorded as “C”, the “Results of PCR … of dUTP 2.8 kbp” value is “C” and the “Results of PCR … of dUTP 3.6 kbp” value was “C”.

As to “KOD D141A/E143A/Y7A: KOD D141A/E143A (exo(−)) mutant with Y7A”, the “Results of PCR … of dUTP 1.3 kbp” value was “C”, the “Results of PCR … of dUTP 2.8 kbp” value is “C” and the “Results of PCR … of dUTP 3.6 kbp” value is “C”.

Consider “KOD N210D/P36H: KOD N210D (exo(−)) mutant with P36H”, for which the “Results of PCR … of dUTP 1.3 kbp” value is given as “A”, the “Results of PCR … of dUTP 2.8 kbp” value is listed as “A” and the “Results of PCR … of dUTP 3.6 kbp” value is “A”.

For the substance “KOD I142R/P36R: KOD I142R (exo(−)) mutant with P36R”, the “Results of PCR … of dUTP 1.3 kbp” value is recorded as “A”, the “Results of PCR … of dUTP 2.8 kbp” value is listed as “A” and the “Results of PCR … of dUTP 3.6 kbp” value is reported as “A”.

As for “KOD I142R/Y7A/V93K: KOD I142R (exo(−)) mutant with Y7A and V93K”, the “Results of PCR … of dUTP 1.3 kbp” value is “A”, the “Results of PCR … of dUTP 2.8 kbp” value is listed as “A” and the “Results of PCR … of dUTP 3.6 kbp” value is listed as “A”.

As to “KOD H147E/P36R: KOD H147E (exo(+)) mutant with P36R”, the “Results of PCR … of dUTP 1.3 kbp” value is “B”, the “Results of PCR … of dUTP 2.8 kbp” value was “B” and the “Results of PCR … of dUTP 3.6 kbp” value is listed as “B”.

With “KOD D141A/E143A/Y7A/V93K: KOD D141A/E143A (exo(−)) mutant with Y7A and V93K”, the “Results of PCR … of dUTP 1.3 kbp” value is “A”, the “Results of PCR … of dUTP 2.8 kbp” value is reported as “A” and the “Results of PCR … of dUTP 3.6 kbp” value is reported as “A”.

Turning to “KOD H147E/V93K: KOD H147E (exo(+)) mutant with V93K”, the “Results of PCR … of dUTP 1.3 kbp” value is given as “B”, the “Results of PCR … of dUTP 2.8 kbp” value is “B” and the “Results of PCR … of dUTP 3.6 kbp” value is “B”.

“KOD N210D/V93K: KOD N210D (exo(−)) mutant with V93K”: the “Results of PCR … of dUTP 1.3 kbp” value was “A”, the “Results of PCR … of dUTP 2.8 kbp” value was “B” and the “Results of PCR … of dUTP 3.6 kbp” value is recorded as “B”.

Turning to “KOD I142R/Y7A: KOD I142R (exo(−)) mutant with Y7A”, the “Results of PCR … of dUTP 1.3 kbp” value was “C”, the “Results of PCR … of dUTP 2.8 kbp” value is listed as “C” and the “Results of PCR … of dUTP 3.6 kbp” value is recorded as “C”.

For the substance “KOD D141A/E143A/V93K: KOD D141A/E143A (exo(−)) mutant with V93K”, the “Results of PCR … of dUTP 1.3 kbp” value is given as “A”, the “Results of PCR … of dUTP 2.8 kbp” value was “B” and the “Results of PCR … of dUTP 3.6 kbp” value is given as “B”.

Regarding “KOD P36R/V93K: modified KOD DNA polymerase with P36R and V93K”, the “Results of PCR … of dUTP 1.3 kbp” value is “C”, the “Results of PCR … of dUTP 2.8 kbp” value is listed as “C” and the “Results of PCR … of dUTP 3.6 kbp” value is “C”.

Regarding “KOD D141A/E143A/Y7A/P36R: KOD D141A/E143A (exo(−)) mutant with Y7A and P36R”, the “Results of PCR … of dUTP 1.3 kbp” value is on record as “A”, the “Results of PCR … of dUTP 2.8 kbp” value was “A” and the “Results of PCR … of dUTP 3.6 kbp” value is recorded as “A”.

As for “KOD P115Δ: modified KOD DNA polymerase lacking P115”, the “Results of PCR … of dUTP 1.3 kbp” value was “C”, the “Results of PCR … of dUTP 2.8 kbp” value is on record as “C” and the “Results of PCR … of dUTP 3.6 kbp” value is “C”.

Consider “KOD N210D/Y7A/P115Δ: KOD N210D (exo(−)) mutant with Y7A and lacking P115”, for which the “Results of PCR … of dUTP 1.3 kbp” value is reported as “C”, the “Results of PCR … of dUTP 2.8 kbp” value is given as “C” and the “Results of PCR … of dUTP 3.6 kbp” value is “C”.

Turning to “KOD D141A/E143A/Y7A/P36H: KOD D141A/E143A (exo(−)) mutant with Y7A and P36H”, the “Results of PCR … of dUTP 1.3 kbp” value was “A”, the “Results of PCR … of dUTP 2.8 kbp” value was “A” and the “Results of PCR … of dUTP 3.6 kbp” value was “A”.

For “KOD I142R/V93K: KOD I142R (exo(−)) mutant with V93K”, the “Results of PCR … of dUTP 1.3 kbp” value is on record as “A”, the “Results of PCR … of dUTP 2.8 kbp” value is “B” and the “Results of PCR … of dUTP 3.6 kbp” value is “B”.

On to “KOD I142R/Y7A/P36R: KOD I142R (exo(−)) mutant with Y7A and P36R”, for which the “Results of PCR … of dUTP 1.3 kbp” value is listed as “A”, the “Results of PCR … of dUTP 2.8 kbp” value was “A” and the “Results of PCR … of dUTP 3.6 kbp” value is given as “B”.

With “KOD H147E/P36H: KOD H147E (exo(+)) mutant with P36H”, the “Results of PCR … of dUTP 1.3 kbp” value is “B”, the “Results of PCR … of dUTP 2.8 kbp” value is given as “B” and the “Results of PCR … of dUTP 3.6 kbp” value was “C”.

Regarding “KOD H147E/P115Δ: KOD H147E (exo(+)) mutant lacking P115”, the “Results of PCR … of dUTP 1.3 kbp” value is listed as “C”, the “Results of PCR … of dUTP 2.8 kbp” value is recorded as “C” and the “Results of PCR … of dUTP 3.6 kbp” value is given as “C”.
